Laboratory results as given in US20080286219A1, “Hydroquinone derivative skin brightening compounds” (priority 2007, published 2008).

What follows are compounds tested against Mushroom Tyrosinase (Sigma T3824) (assay: General in vitro tyrosinase inhibition assay (L-Dopa oxidation to dopachrome)). Details: 0.5 mM L-Dopa, pH 7.0, 30° C., 475 nm, 18 Units Mushroom Tyrosinase.
Type: biochemical
`CC(=O)N[C@@H](CSc1cc(O)ccc1O)C(=O)O` [Compound X29876-018] showed an EC50 of 4850 µM.
With `NC(CCC(=O)NC(CSc1cc(O)ccc1O)C(=O)NCC(=O)O)C(=O)O` (stereo not shown) [Compound X29876-019] the EC50 was 10400 µM.
`N[C@@H](CSc1cc(O)ccc1O)C(=O)O` [Compound X29876-063] showed an EC50 of 20 µM.
Work on `CCOC(=O)[C@@H](N)CSc1cc(O)ccc1O` [Compound X29876-064] yielded an EC50 of 250 µM.
`CC(C)(Sc1cc(O)ccc1O)C(N)C(=O)O` (stereo not shown) [Compound X29876-144] gave an EC50 of 70 µM.
Work on `COC(=O)[C@@H](N)CSc1cc(O)ccc1O` [Compound X29876-145] yielded an EC50 of 130 µM.
In the case of `N[C@H](CSc1cc(O)ccc1O)C(=O)O` [Compound X29876-147], the EC50 is reported as 30 µM.
Compound `C[C@H](CSc1cc(O)ccc1O)C(=O)N1CCC[C@H]1C(=O)O` [Compound X29876-155] has an EC50 of 12200 µM.
With `Cc1nc(Sc2cc(O)ccc2O)sc1CC(=O)O` [Compound X29876-160] the EC50 was 520 µM.
For `OCCCCCCSc1cc(O)ccc1O` [Compound X29876-162], the EC50 was 10 µM.
Compound `O=C(O)CSc1cc(O)ccc1O` [Compound X29876-163] has an EC50 of 9410 µM.
For `CCOC(=O)CSc1cc(O)ccc1O` [Compound X29876-169], the EC50 was 3280 µM.
Compound `CC(=O)C(C)Sc1cc(O)ccc1O` (stereo not shown) [Compound X29876-181] has an EC50 of 310 µM.
For `Oc1ccc(O)c(SCc2cccs2)c1` [Compound X29876-198], the EC50 was 200 µM.
`Oc1ccc(O)cc1` [Hydroquinone, hydroquinone] gave an EC50 of 620 µM.

Same assay, conditions: compared to HQ
In the case of `N[C@@H](CSc1cc(O)ccc1O)C(=O)O` [Compound X29876-063], the “fold more potent than HQ” value is reported as “about 25 fold”.
